Measurements taken from US11007176B2, “Use of actin depolymerizing agents for the treatment of anxiety disorders” (priority 2019, dated 2021).
“Also recorded” adds a separate entry of the source.

Tested on: Atf3^−/− mice
Test: Trace fear conditioning (contextual and tone freezing tests) after intracranial infusion of cytochalasin D
Type: in vivo
Protocol: The habituation session was performed similarly to the DFC. The mice were divided into three groups (WT: n=15; Atf3^+/−: n=10; Atf3^−/−: n=16) and placed in the conditioning chamber for 15 min per day for 3 days. On Day 4, they underwent three trace fear conditioning trials: a 20-s tone (6000 Hz, 85 dB; CS), followed by a 10-s time interval, and then a 1-s foot shock (2 mA; US). Twenty-four hours later, the mice were placed in the same conditioning chamber for 6 min with neither tone nor foot shock for contextual testing. One hour after the contextual test, the mice were placed in a novel chamber for a tone test, which was performed as follows: 1 min with neither tone nor foot shock followed by a 6-min tone (6000 Hz, 85 dB). Freezing behaviors were recorded and analyzed using the FreezeScan software, and the freezing percentage was calculated using the aforementioned formula.
At 14 weeks of age, mice (Atf3^+/−: n=5, Atf3^−/−: n=9) were anesthetized using a mixture of ketamine, xylazine, and saline (0.55 mL/25 g) in accordance with the regulations of the Lab Animal Center, Tzu Chi University, Taiwan. Mouse heads were restrained in stereotaxic apparatus to ensure movement restriction during surgery. […] After surgery, the mice were placed in their respective cages to recover for 4 days and were then tested for TFC. Habituation was performed as described in the trace fear conditioning protocol. Using a Hamilton syringe, the actin depolymerizing agent cytochalasin D (Sigma-Aldrich, MO, USA, catalogue No. C8273), dissolved in dimethyl sulfoxide at a concentration of 25 μg/μL, was infused at a rate of 0.5 μL/min for 1 min immediately after fear conditioning on Day 4. Twenty-four hours later, contextual and tone testing was performed as previously described. A few mice were unable to perform the tasks because of loss of mobility after surgery; the data for these mice are not included. Mice were transcardially perfused, and their brains were incubated in Golgi-Cox staining solution.

For C=C1[C@@H](C)[C@H]2[C@H](Cc3ccccc3)NC(=O)[C@]23[C@H](OC(C)=O)/C=C/[C@@](C)(O)C(=O)[C@@H](C)C/C=C/[C@H]3[C@@H]1O [cytochalasin D], the “Freezing percentage to context” value (Atf3^−/− mice, cytochalasin D 25 μg/μL in DMSO infused at 0.5 μL/min for 1 min immediately after trace fear conditioning, contextual test 24 h later, compared with Atf3^−/− mice treated with saline (FIG. 5G)) was “significantly lower”, the “Freezing percentage to tone” value (Atf3^−/− mice, cytochalasin D 25 μg/μL in DMSO infused at 0.5 μL/min for 1 min immediately after trace fear conditioning, tone test 24 h later, compared with Atf3^−/− mice treated with saline (FIG. 5H)) was “significantly lower” and the “Freezing behavior (fear phenotype) of Atf3^−/− mice” value (hippocampal / intracranial infusion of cytochalasin D, summary statement, context or tone test not specified) was “reversed the phenotype of Atf3^−/− mice; also recorded: reduced the freezing behavior of the Atf3^−/− mice to a wild-type mouse level”.
